The text below walks through data of ChEMBL document CHEMBL3832555, “DailyMed|setid=f0492050-a966-41be-80b5-a58da7ba2bcf | PERINDOPRIL ERBUMINE-perindopril erbumine tablet|Lannett Company, Inc”.

The subject of the series is Homo sapiens. Briefly: Evaluation of pharmacokinetic parameters for PERINDOPRIL and its active metabolite, PERINDOPRILAT,following single oral administration of PERINDOPRIL ERBUMINE tablets. The class given is ADME, organism-based. Particulars: in vivo, dosed compound id 11, dosed compound name PERINDOPRIL ERBUMINE, tissue Plasma.

Structures are written as SMILES.

What is called Tmax is the time from dosing to the highest level. As for `CC(C)(C)N.CCC[C@H](N[C@@H](C)C(=O)N1[C@H](C(=O)O)C[C@@H]2CCCC[C@@H]21)C(=O)OCC` [PERINDOPRIL ERBUMINE], the F stood at 75%, the Protein binding came to 60%, the Tmax was determined as 1 h and the t1/2-elimination lay within 0.8 to 1 h.
`CCC[C@H](N[C@@H](C)C(=O)N1[C@H](C(=O)O)C[C@@H]2CCCC[C@@H]21)C(=O)O` [PERINDOPRILAT]: the F is reported as 25%, the Protein binding was in the range of 10 to 20%, the Tmax is 3 to 7 h and the t1/2 lay within 3 to 10 h. Moreover, the t1/2-elimination lay in the range of 30 to 120 h.
